From PMC9502701 (Molecules, 2022)

Target: neuraminidase (NA) (Influenza A virus, UniProt Q6DPL2)
Format: biochemical
Settings: for Inhibition Rate (%): 100 μg/mL standard compounds; for IC50: standard compounds

Chain of neuraminidase (NA) (Q6DPL2 whole entry, looked up): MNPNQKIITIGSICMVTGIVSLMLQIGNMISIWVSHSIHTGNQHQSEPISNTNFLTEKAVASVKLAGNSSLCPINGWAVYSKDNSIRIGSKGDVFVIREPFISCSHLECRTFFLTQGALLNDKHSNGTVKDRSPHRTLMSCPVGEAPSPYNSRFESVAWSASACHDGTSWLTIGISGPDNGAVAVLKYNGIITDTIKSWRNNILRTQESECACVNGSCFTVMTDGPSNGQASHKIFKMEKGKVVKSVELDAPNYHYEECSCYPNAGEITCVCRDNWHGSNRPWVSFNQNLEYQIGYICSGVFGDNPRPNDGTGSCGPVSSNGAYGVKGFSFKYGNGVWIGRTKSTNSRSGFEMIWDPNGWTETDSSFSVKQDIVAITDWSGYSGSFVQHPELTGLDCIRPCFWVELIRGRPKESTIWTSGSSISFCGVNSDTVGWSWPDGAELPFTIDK

Compound | Inhibition Rate (%) | IC50
O=C(/C=C/c1ccc(O)c(O)c1)O[C@@H]1[C@H](O)C[C@@](O)(C(=O)O)C[C@H]1OC(=O)/C=C/c1ccc(O)c(O)c1 [4,5-Di-O-caffeoylquinic acid] | 75.90% | 132 µM
O=C(/C=C/c1ccc(O)c(O)c1)O[C@H]1[C@H](O)C[C@](O)(C(=O)O)C[C@H]1O [Cryptochlorogenic acid, cryptochlorogenic acid] | 54.89% | 290 µM
O=C(/C=C/c1ccc(O)c(O)c1)O[C@@H]1C[C@@](O)(C(=O)O)C[C@@H](O)[C@@H]1O [Neochlorogenic acid, neochlorogenic acid] | 76.00% | 157 µM
C=C[C@H]1[C@H](O[C@@H]2O[C@H](CO)[C@@H](O)[C@H](O)[C@H]2O)OC=C(C(=O)OC)[C@H]1CC(=O)O [Secoxyloganin, secoxyloganin] | 37.74% | 
